The values that follow come from patent US20240376085A1 (Janssen Pharmaceutica NV, priority 2021, published 2024).

The structures appear in SMILES notation.

The target of assay [1] is T1, IL-17A : IL-17RA binding (Homo sapiens, UniProt Q16552, K93Q).
T1 construct: Name: IL-17A-Flag
Description: IL-17A(FLAG-tagged):IL-17RA(His-tagged) binding disruption Eu-HTRF assay, Protocol 1. The conditions noted are these: FLAG-IL-17A 2.5 nM at 2x final concentration; average if tested more than once. The text has this: An antibody directed against the FLAG tag of IL-17A (SEQ ID NO: 1) is labeled with the HTRF donor chromophore (Europium-cryptate). IL-17A is present as a dimer that is “locked into” this quaternary structure due to the formation of loop-spanning […] disulfide bridges. The construct of IL-17RA used in the assay excludes the […] portion of the receptor and is fused to a C-terminal 10×His tag (SEQ ID NO:2). An antibody directed against the His tag of the IL-17RA chimera is labeled with the HTRF acceptor chromophore (“D2”). The fluorescence-resonance energy transfer (FRET) depends on the vicinity of the donor chromophore to the acceptor, and interruption of the binding between the IL-17A and IL-17RA causes the reduction/loss of FRET. Therefore, this assay allows to evaluate the compound effect on the binding IL-17A and IL-17RA by monitoring the fluorescence intensity of donor vs acceptor. The assay was run using either Protocol 1 or Protocol 2 as described below.
Protocol 1. 40 nl of 2-fold serial diluted compound solution for total 22 dilution points is added into each well of a 1536-well, white, low-volume, non-binding plate (Greiner #782904), then 2 μl of FLAG tagged IL-17A at 2× final concentration (2.5 nM) in solution of PBS+0.01% Triton-X100 is added to each well. The assay plate is briefly centrifuged then incubated for 1 h at rt. A mixed solution is prepared containing 2×5 nM 10HIS×IL-17RA, 2×2.5 nM Eu-anti-FLAG (CISBIO), 2×5 nM D2-anti-HIS (CISBIO) in PBS+0.01% Triton-X100+200 mM Potassium Fluoride (Sigma 60238) and 2 μl of mix is added to each well of the assay plate. The plate is briefly centrifuged then incubated for 2 h at rt. The HTRF intensities at the wavelength of donor (620 nm) and acceptor (665 nm) are measured using BMG Pherastar. The ratio between intensities at two wavelengths is calculated and plotted against the compound concentration and the data is fitted to a one-site competition model to yield IC50 of the compound.
Background: In TR-FRET formats the signal depends on donor and acceptor labels being close together.

Assay [2] relates to IL-17A-induced G-CSF production in human normal keratinocyte (NHK). Description: NHK assay: IL-17A-induced G-CSF production in normal human keratinocytes. Format: cell-based. The conditions noted are these: 24 h, IL-17A 5 ng/mL, average if tested more than once. Here is the method: IL-17A acts directly on keratinocytes through binding to dimeric receptor IL-17RA/RC and drives the production of a number of inflammatory mediators known to be elevated in psoriasis lesional tissue. IL-17A small molecule inhibitors that block the IL-17A to interact with IL-17R would inhibit the IL-17A signaling in its targeted cells such as keratinocytes. The compound functional activity is evaluated for its impact on IL-17A-induced G-CSF production in human normal keratinocyte (NHK).
Adult normal human keratinocytes are cultured in keratinocyte growth medium (Lonza) in a flask till reaching ˜90% confluence, then cells are transferred to a 384-well plate at density of 3000-4000 cell/well. Recombinant human IL-17A (Gibco PHC9174) is pre-incubated with titrated compound or DMSO for 1 h at rt then added to the cell culture plate. The final concentration of IL-17A is 5 ng/mL and DMSO is 0.2%, in the culture containing 5% FBS. Cells are cultured/treated for 24 h at 37° C. Supernatants are collected and G-CSF production is measured through HTRF technology using Human G-CSF Kit (CisBio). G-CSF concentration was extrapolated from the standard curve and IC50 is determined using GraphPad Prism. Cell viability is also evaluated using CellTiter-Glo kit (Promega) and effect of compound on cell viability is compared to DMSO control.

T1 sequence (Q16552 with tags, fused parts or gaps K93Q): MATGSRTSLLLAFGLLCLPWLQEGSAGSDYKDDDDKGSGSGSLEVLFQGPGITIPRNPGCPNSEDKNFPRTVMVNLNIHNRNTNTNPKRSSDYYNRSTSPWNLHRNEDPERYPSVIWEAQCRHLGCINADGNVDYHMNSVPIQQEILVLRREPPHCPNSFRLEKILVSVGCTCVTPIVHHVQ

For the compound `C[C@@H](NC(=O)CCC(F)(F)F)c1ccc2[nH]c(C(CC(C)(C)C(F)(F)F)NC(=O)c3ncnn3CC3CC3)nc2c1` (single isomer, unassigned) [Example 195, 1-(Cyclopropylmethyl)-N—((S*)-4,4,4-trifluoro-3,3-dimethyl-(5-((R)-1-(4,4,4-trifluorobutanamido)ethyl)-1H-benzo[d]imidazol-2-yl)butyl)-1H-1,2,4-triazole-5-carboxamide], the IC50 was above 100 nM in assay [1] and above 100 nM in assay [2] (Homo sapiens, Keratinocyte).
As for `C[C@@H](NC(=O)CCC(F)(F)F)c1ccc2[nH]c([C@@H](NC(=O)[C@H]3C[C@@H]3C#N)C3CCC(F)(F)CC3)nc2c1` (relative stereo) [Example 103, trans-(1S*,2S*)-2-Cyano-N—((S)-(4,4-difluorocyclohexyl)(5-((R)-1-(4,4,4-trifluorobutanamido)ethyl)-1H-benzo[d]imidazol-2-yl)methyl)cyclopropane-1-carboxamide], the IC50 in assay [1] is above 100 nM; in assay [2] (Homo sapiens, Keratinocyte), above 100 nM.
`C[C@@H](NC(=O)CCC(F)(F)F)c1ccc2[nH]c([C@@H](NC(=O)c3cnnn3CC3CCC3(F)F)C3CCC(F)(F)CC3)nc2c1` (stereo partly drawn) [Example 86, 1-((2,2-Difluorocyclobutyl)methyl)-N—((S)-(4,4-difluorocyclohexyl)(5-((R)-1-(4,4,4-trifluorobutanamido)ethyl)-1H-benzo[d]imidazol-2-yl)methyl)-1H-1,2,3-triazole-5-carboxamide]: the IC50 in assay [1] is above 100 nM; in assay [2] (Homo sapiens, Keratinocyte), above 100 nM.
In the case of `C[C@@H](NC(=O)CCC(F)(F)F)c1ccc2[nH]c([C@@H](NC(=O)CC3CC3(F)F)C3CCC(F)(F)CC3)nc2c1` (single isomer, unassigned) [Example 107, N—((R)-1-(2-((S)-(4,4-Difluorocyclohexyl)(2-((R*)-2,2-difluorocyclopropyl)acetamido)methyl)-1H-benzo[d]imidazol-5-yl)ethyl)-4,4,4-trifluorobutanamide], the IC50 in assay [1] is above 100 nM; in assay [2] (Homo sapiens, Keratinocyte), above 100 nM.
Consider `C[C@@H](NC(=O)CCC(F)(F)F)c1ccc2[nH]c([C@@H](NC(=O)c3cnnn3CC(F)(F)F)C3CCC(F)(F)CC3)nc2c1` [Example 23, N—[(S)-(4,4-Difluorocyclohexyl)-[6-[(1R)-1-(4,4,4-trifluorobutanoylamino)ethyl]-1H-benzimidazol-2-yl]methyl]-3-(2,2,2-trifluoroethyl)triazole-4-carboxamide], for which the IC50 in assay [1] was above 100 nM; in assay [2] (Homo sapiens, Keratinocyte) it was above 100 nM.
Regarding `C[C@@H](NC(=O)CCC(F)(F)F)c1ccc2[nH]c([C@@H](NC(=O)c3cc(O)n(CCC(F)(F)F)n3)C3CCC(F)(F)CC3)nc2c1` [Example 93, N—((S)-(4,4-Difluorocyclohexyl)(5-((R)-1-(4,4,4-trifluorobutanamido)ethyl)-1H-benzo[d]imidazol-2-yl)methyl)-5-hydroxy-1-(3,3,3-trifluoropropyl)-1H-pyrazole-3-carboxamide], the IC50 in assay [1] was above 100 nM; in assay [2] (Homo sapiens, Keratinocyte), above 100 nM.
As for `O=C(N[C@H](c1nc2cc([C@H](NC(=O)C(F)(F)CC3CC3)C3CC3)ccc2[nH]1)C1CCC(F)(F)CC1)c1nonc1C1CC1` [Example 147, 4-Cyclopropyl-N—((S)-(5-((R)-cyclopropyl(3-cyclopropyl-2,2-difluoropropanamido)methyl)-1H-benzo[d]imidazol-2-yl)(4,4-difluorocyclohexyl)methyl)-1,2,5-oxadiazole-3-carboxamide], the IC50 in assay [1] was 50 to 100 nM; in assay [2] (Homo sapiens, Keratinocyte) it was below 50 nM.
Regarding `Cc1nonc1C(=O)N[C@H](c1nc2cc([C@H](NC(=O)CC(C)C(F)(F)F)C3CC3)ccc2[nH]1)[C@@H]1CCCC(F)(F)C1` (single isomer, unassigned) [Example 259, N—((S)-(5-((R)-Cyclopropyl((S*)-4,4,4-trifluoro-3-methylbutanamido)methyl)-1H-benzo[d]imidazol-2-yl)((R)-3,3-difluorocyclohexyl)methyl)-4-methyl-1,2,5-oxadiazole-3-carboxamide], the IC50 in assay [1] and in assay [2] was 50 to 100 nM throughout.
On to `C[C@@H](NC(=O)CCC(F)(F)F)c1ccc2[nH]c([C@@H](NC(=O)[C@@H]3C[C@@H]3F)C3CCC(F)(F)CC3)nc2c1` [Example 101, (1S,2S)—N—((S)-(4,4-Difluorocyclohexyl)(5-((R)-1-(4,4,4-trifluorobutanamido)ethyl)-1H-benzo[d]imidazol-2-yl)methyl)-2-fluorocyclopropane-1-carboxamide], for which the IC50 in assay [1] is above 100 nM; in assay [2] (Homo sapiens, Keratinocyte), above 100 nM.
As to `CC(NC(=O)CCC(F)(F)F)c1ccc2nc([C@H](CC(C)(C)C(F)(F)F)NC(=O)c3ccnn3CCC(F)(F)F)[nH]c2c1` (single isomer, unassigned) [Example 230, N—((S)-4,4,4-Trifluoro-3,3-dimethyl-1-(6-((R*)-1-(4,4,4-trifluorobutanamido)ethyl)-1H-benzo[d]imidazol-2-yl)butyl)-1-(3,3,3-trifluoropropyl)-1H-pyrazole-5-carboxamide], the IC50 in assay [1] is above 100 nM; in assay [2], 50 to 100 nM.
Regarding `Cn1nccc1C(=O)N[C@H](c1nc2cc(C(NC(=O)CCC(F)(F)F)C3CCC3)ccc2[nH]1)C1CCC(F)(F)CC1` (single isomer, unassigned) [Example 42, N—((S)-(5-((S*)-Cyclobutyl(4,4,4-trifluorobutanamido)methyl)-1H-benzo[d]imidazol-2-yl)(4,4-difluorocyclohexyl)methyl)-1-methyl-1H-pyrazole-5-carboxamide], the IC50 is above 100 nM in assay [1] and below 50 nM in assay [2] (Homo sapiens, Keratinocyte).
On to `CC(Cn1ncc(C(=O)N[C@H](c2nc3ccc([C@@H](C)NC(=O)CCC(F)(F)F)cc3[nH]2)C2CCC(F)(F)CC2)n1)C(F)(F)F` (single isomer, unassigned) [Example 69, N—((S)-(4,4-Difluorocyclohexyl)(6-((R)-1-(4,4,4-trifluorobutanamido)ethyl)-1H-benzo[d]imidazol-2-yl)methyl)-2-((R*)-3,3,3-trifluoro-2-methylpropyl)-2H-1,2,3-triazole-4-carboxamide], for which the IC50 was above 100 nM in assay [1] and above 100 nM in assay [2] (Homo sapiens, Keratinocyte).
As to `CC(C)C(NC(=O)CCC(F)(F)F)c1ccc2[nH]c([C@@H](NC(=O)c3ccnn3C)C3CCC(F)(F)CC3)nc2c1` (single isomer, unassigned) [Example 45, N—((S)-(4,4-Difluorocyclohexyl)(5-((R*)-2-methyl-1-(4,4,4-trifluorobutanamido)propyl)-1H-benzo[d]imidazol-2-yl)methyl)-1-methyl-1H-pyrazole-5-carboxamide], the IC50 in assay [1] was above 100 nM; in assay [2], 50 to 100 nM.
Turning to `Cc1nonc1C(=O)N[C@@H](CC(C)(C)C(F)(F)F)c1nc2cc([C@@H](NC(=O)CCC(F)(F)F)C3CC3)ccc2[nH]1` (relative stereo) [Example 192, N—((S*)-1-(5-((S*)-Cyclopropyl(4,4,4-trifluorobutanamido)methyl)-1H-benzo[d]imidazol-2-yl)-4,4,4-trifluoro-3,3-dimethylbutyl)-4-methyl-1,2,5-oxadiazole-3-carboxamide], the IC50 was above 100 nM in assay [1] and above 100 nM in assay [2] (Homo sapiens, Keratinocyte).
`C[C@@H](NC(=O)CCC(F)(F)F)c1ccc2[nH]c([C@@H](NC(=O)c3nnc(CCC(F)(F)F)o3)C3CCC(F)(F)CC3)nc2c1` [Example 187, N—((S)-(4,4-Difluorocyclohexyl)(5-((R)-1-(4,4,4-trifluorobutanamido)ethyl)-1H-benzo[d]imidazol-2-yl)methyl)-5-(3,3,3-trifluoropropyl)-1,3,4-oxadiazole-2-carboxamide] showed an IC50 in assay [2] (Homo sapiens, Keratinocyte) above 100 nM.

Usually IC50 stands for the point on the concentration scale where inhibition reaches its midpoint. Lower therefore signals higher potency.
